Measured values reported in patent publication US4178442A, “Novel cinnamoyles piperazines and homopiperazines, the method of preparing them and their application in therapeutics” (Delalande S. A., priority 1977, dated 1979).
Like-named read-outs stand apart in the source and are kept apart here.

What was measured:
in vivo = details: for mortality: read-out: Toxicity (Mortality); for LD50: read-out: Toxicity: LD50
Excerpt: *LD50 or percentage of mortality which is given between brackets

anaesthetized dog = assay: Antiangorous activity on anaesthetized dog: consumption of oxygen in the left ventricule and cardiac effort (KATZ's index); assay type: in vivo; details: for inhibition in vivo at 2.3 mg/kg / inhibition in vivo at 1.25 mg/kg / inhibition in vivo at 2.5 mg/kg / inhibition in vivo at 2.4 mg/kg / inhibition in vivo at 0.625 mg/kg / inhibition in vivo at […] / inhibition in vivo at 0.54 mg/kg: Canis lupus familiaris, iv; for inhibition in vivo at […]: 0.15 mg/kg i.v. slow perfusion
Outline: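 Katz index taken as mean arterial pressure multiplied by ECG (D2) heart rate, and myocardial O2 use as coronary sinus flow via modified Morawitz cannula times coronary arteriovenous O2 difference. Animals: pentobarbital-anaesthetized dogs (30 mg/kg i.v.), test compounds infused slowly intravenously.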

[1] = 2.3 mg/kg i.v. slow perfusion, read-out: Diminution in consumption of O2
[2] = 2.3 mg/kg i.v. slow perfusion, read-out: Diminution in the cardiac effort (IK)
[3] = 1.25 mg/kg i.v. slow perfusion, read-out: Diminution in consumption of O2
[4] = 1.25 mg/kg i.v. slow perfusion, read-out: Diminution in the cardiac effort (IK)
[5] = 2.5 mg/kg i.v. slow perfusion, read-out: Diminution in consumption of O2
[6] = 2.5 mg/kg i.v. slow perfusion, read-out: Diminution in the cardiac effort (IK)
[7] = 0.625 mg/kg i.v. slow perfusion
[8] = 0.625 mg/kg i.v. slow perfusion, read-out: Diminution in consumption of O2
[9] = 0.625 mg/kg i.v. slow perfusion, read-out: Diminution in the cardiac effort (IK)
[10] = read-out: Diminution in consumption of O2
[11] = read-out: Diminution in the cardiac effort (IK)

## COc1cc(/C=C/C(=O)N2CCN(CC(O)COc3ccc([N+](=O)[O-])cc3)CC2)cc(OC)c1OC (stereo not shown) [760 538]
In vivo; iv, 185 mg/kg i.v.
  mortality: 10%
Anaesthetized dog; 2.3 mg/kg i.v. slow perfusion
  Diminution in consumption of O2: in time: 15 min
  Diminution in the cardiac effort (IK): in time: 30 min
Anaesthetized dog; [1]
  inhibition in vivo at 2.3 mg/kg: 48%
Anaesthetized dog; [2]
  inhibition in vivo at 2.3 mg/kg: 37%

## COc1cc(/C=C/C(=O)N2CCN(CC(O)COc3ccc(C(=O)NC4CCCCC4)c4c3OCCO4)CC2)cc(OC)c1OC (stereo not shown) [770 831]
In vivo; po, p.o.: 2000 mg/kg
  mortality: 0%
Anaesthetized dog; 1.25 mg/kg i.v. slow perfusion
  Diminution in consumption of O2: in time: 30 min
  Diminution in the cardiac effort (IK): in time: 45 min
Anaesthetized dog; [3]
  inhibition in vivo at 1.25 mg/kg: 45%
Anaesthetized dog; [4]
  inhibition in vivo at 1.25 mg/kg: 27%

## COc1cc(/C=C/C(=O)N2CCN(CC(O)COc3ccc4c(c3)OCO4)CC2)cc(OC)c1OC (stereo not shown) [760 529]
In vivo; iv
  LD50: 115 mg/kg
Anaesthetized dog; 2.3 mg/kg i.v. slow perfusion
  Diminution in consumption of O2: in time: 30 min
  Diminution in the cardiac effort (IK): in time: 15 min
Anaesthetized dog; [1]
  inhibition in vivo at 2.3 mg/kg: 53%
Anaesthetized dog; [2]
  inhibition in vivo at 2.3 mg/kg: 19%

## CNC(=O)Nc1ccc(OCC(O)CN2CCN(C(=O)/C=C/c3cc(OC)c(OC)c(OC)c3)CC2)c(OC)c1OC (stereo not shown) [770 992]
In vivo; iv, 400 mg/kg i.v.
  mortality: 0%
Anaesthetized dog; 2.5 mg/kg i.v. slow perfusion
  Diminution in consumption of O2: in time: 40 min
  Diminution in the cardiac effort (IK): in time: 30 min
Anaesthetized dog; [5]
  inhibition in vivo at 2.5 mg/kg: 77%
Anaesthetized dog; [6]
  inhibition in vivo at 2.5 mg/kg: 36%

## COc1cc(/C=C/C(=O)N2CCN(CC(O)COc3ccc(C(C)=O)c4c3OCCO4)CC2)cc(OC)c1OC(C)C (stereo not shown) [770 727]
In vivo; iv
  LD50: 130 mg/kg
Anaesthetized dog; 2.5 mg/kg i.v. slow perfusion
  Diminution in consumption of O2: in time: 15 min
  Diminution in the cardiac effort (IK): in time: 30 min
Anaesthetized dog; [5]
  inhibition in vivo at 2.5 mg/kg: 57%
Anaesthetized dog; [6]
  inhibition in vivo at 2.5 mg/kg: 27%

## COc1cc(OC)cc(OCC(O)CN2CCN(C(=O)/C=C/c3cc(OC)c(OC)c(OC)c3)CC2)c1 (stereo not shown) [760 620]
In vivo; iv
  LD50: 285 mg/kg
Anaesthetized dog; 2.5 mg/kg i.v. slow perfusion
  Diminution in consumption of O2: in time: 30 min
  Diminution in the cardiac effort (IK): in time: 30 min
Anaesthetized dog; [5]
  inhibition in vivo at 2.5 mg/kg: 22%
Anaesthetized dog; [6]
  inhibition in vivo at 2.5 mg/kg: 10%

## COc1cc(/C=C/C(=O)N2CCN(CC(O)COc3cc(OC)c(OC)c(OC)c3C(C)=O)CC2)cc(OC)c1OC (stereo not shown) [760 781]
In vivo; iv, 377 mg/kg i.v.
  mortality: 0%
Anaesthetized dog; 2.4 mg/kg i.v. slow perfusion
  Diminution in consumption of O2: in time: 90 min
  Diminution in the cardiac effort (IK): in time: 45 min
Anaesthetized dog; 2.4 mg/kg i.v. slow perfusion, read-out: Diminution in consumption of O2
  inhibition in vivo at 2.4 mg/kg: 70%
Anaesthetized dog; 2.4 mg/kg i.v. slow perfusion, read-out: Diminution in the cardiac effort (IK)
  inhibition in vivo at 2.4 mg/kg: 15%

## CNC(=O)c1ccc(OCC(O)CN2CCN(C(=O)/C=C/c3cc(OC)c(OC)c(OC)c3)CC2)c(OC)c1 (stereo not shown) [770 855]
In vivo; iv
  LD50: 260 mg/kg
Anaesthetized dog; 2.5 mg/kg i.v. slow perfusion
  Diminution in consumption of O2: in time: 60 min
  Diminution in the cardiac effort (IK): in time: 60 min
Anaesthetized dog; [5]
  inhibition in vivo at 2.5 mg/kg: 60%
Anaesthetized dog; [6]
  inhibition in vivo at 2.5 mg/kg: 45%

## COc1cc(/C=C/C(=O)N2CCN(CC(O)COc3c(OC)cccc3OC)CC2)cc(OC)c1OC (stereo not shown) [760 580]
In vivo; iv
  LD50: 294 mg/kg
Anaesthetized dog; 2.3 mg/kg i.v. slow perfusion
  Diminution in consumption of O2: in time: 30 min
  Diminution in the cardiac effort (IK): in time: 15 min
Anaesthetized dog; [1]
  inhibition in vivo at 2.3 mg/kg: 19%
Anaesthetized dog; [2]
  inhibition in vivo at 2.3 mg/kg: 26%

## COc1cc(/C=C/C(=O)N2CCN(CC(O)COc3ccc(CC(N)=O)c4c3OCCO4)CC2)cc(OC)c1OC (stereo not shown) [770 386]
In vivo; iv, 400 mg/kg i.v.
  mortality: 20%
Anaesthetized dog; [7]
  Diminution in consumption of O2: in time: 30 min
  Diminution in the cardiac effort (IK): in time: 30 min
Anaesthetized dog; [8]
  inhibition in vivo at 0.625 mg/kg: 41%
Anaesthetized dog; [9]
  inhibition in vivo at 0.625 mg/kg: 20%

## CCNC(=O)Nc1ccc(OCC(O)CN2CCN(C(=O)/C=C/c3cc(OC)c(OC)c(OC)c3)CC2)c2c1OCCO2 (stereo not shown) [770 307]
In vivo; iv, 367 mg/kg i.v.
  mortality: 10%
Anaesthetized dog; [10]
  inhibition in vivo at […]: 43%
Anaesthetized dog; [11]
  inhibition in vivo at […]: 11%

## COc1cc(/C=C/C(=O)N2CCN(CC(O)COc3ccc(C(C)C)cc3)CC2)cc(OC)c1OC (stereo not shown) [770 858]
In vivo; iv
  LD50: 260 mg/kg
Anaesthetized dog; [10]
  inhibition in vivo at […]: 16%
Anaesthetized dog; [11]
  inhibition in vivo at […]: 15%

## CCCCC(=O)Nc1ccc(OCC(O)CN2CCN(C(=O)/C=C/c3cc(OC)c(OC)c(OC)c3)CC2)c2c1OCCO2 (stereo not shown) [770 601]
In vivo; po, p.o.: 2000 mg/kg
  mortality: 22%
Anaesthetized dog; [7]
  Diminution in consumption of O2: in time: 30 min
  Diminution in the cardiac effort (IK): in time: 30 min
Anaesthetized dog; [8]
  inhibition in vivo at 0.625 mg/kg: 69%
Anaesthetized dog; [9]
  inhibition in vivo at 0.625 mg/kg: 25%

## COc1cc(/C=C/C(=O)N2CCN(CC(O)COc3cccc(C#N)c3)CC2)cc(OC)c1OC (stereo not shown) [760 784]
In vivo; iv
  LD50: 372 mg/kg
Anaesthetized dog; 2.3 mg/kg i.v. slow perfusion
  Diminution in consumption of O2: in time: 30 min
  Diminution in the cardiac effort (IK): in time: 30 min
Anaesthetized dog; [1]
  inhibition in vivo at 2.3 mg/kg: 44%
Anaesthetized dog; [2]
  inhibition in vivo at 2.3 mg/kg: 12%

## COc1cc(/C=C/C(=O)N2CCCN(CC(O)COc3ccc(C(C)=O)c4c3OCCO4)CC2)cc(OC)c1OC (stereo not shown) [760 622]
In vivo; iv, 400 mg/kg i.v.
  mortality: 40%
Anaesthetized dog; 1.25 mg/kg i.v. slow perfusion
  Diminution in consumption of O2: in time: 30 min
  Diminution in the cardiac effort (IK): in time: 15 min
Anaesthetized dog; [3]
  inhibition in vivo at 1.25 mg/kg: 20%
Anaesthetized dog; [4]
  inhibition in vivo at 1.25 mg/kg: 17%

## CCC(=O)Nc1ccc(OCC(O)CN2CCN(C(=O)/C=C/c3cc(OC)c(OC)c(OC)c3)CC2)c2c1OCCO2 (stereo not shown) [770 545]
In vivo; iv, 400 mg/kg i.v.
  mortality: 40%
Anaesthetized dog; [7]
  Diminution in consumption of O2: in time: 30 min
  Diminution in the cardiac effort (IK): in time: 15 min
Anaesthetized dog; [8]
  inhibition in vivo at 0.625 mg/kg: 61%
Anaesthetized dog; [9]
  inhibition in vivo at 0.625 mg/kg: 16%

## COc1cc(/C=C/C(=O)N2CCN(CC(O)COc3ccc(CC#N)cc3)CC2)cc(OC)c1OC (stereo not shown) [770 488]
In vivo; iv
  LD50: 225 mg/kg
Anaesthetized dog; 2.5 mg/kg i.v. slow perfusion
  Diminution in consumption of O2: in time: 30 min
  Diminution in the cardiac effort (IK): in time: 15 min
Anaesthetized dog; [5]
  inhibition in vivo at 2.5 mg/kg: 78%
Anaesthetized dog; [6]
  inhibition in vivo at 2.5 mg/kg: 17%

## COc1cc(/C=C/C(=O)N2CCN(CC(O)COc3ccc(NC(=O)NC(C)C)c4c3OCCO4)CC2)cc(OC)c1OC (stereo not shown) [770 630]
In vivo; iv, 400 mg/kg i.v.
  mortality: 40%
Anaesthetized dog; [10]
  inhibition in vivo at […]: 58%
Anaesthetized dog; [11]
  inhibition in vivo at […]: 32%

## CNC(=O)c1ccc(OCC(O)CN2CCN(C(=O)/C=C/c3cc(OC)c(OC)c(OC)c3)CC2)c2c1OCCO2 (stereo not shown) [760 710]
In vivo; iv, 345 mg/kg i.v.
  mortality: 70%
Anaesthetized dog; 0.54 mg/kg i.v. slow perfusion
  Diminution in consumption of O2: in time: 60 min
  Diminution in the cardiac effort (IK): in time: 30 min
Anaesthetized dog; 0.54 mg/kg i.v. slow perfusion, read-out: Diminution in consumption of O2
  inhibition in vivo at 0.54 mg/kg: 64%
Anaesthetized dog; 0.54 mg/kg i.v. slow perfusion, read-out: Diminution in the cardiac effort (IK)
  inhibition in vivo at 0.54 mg/kg: 36%

## COc1cc(/C=C/C(=O)N2CCN(CC(O)CSc3ccccc3)CC2)cc(OC)c1OC (stereo not shown) [770 060]
In vivo; iv
  LD50: 195 mg/kg
Anaesthetized dog; 2.3 mg/kg i.v. slow perfusion
  Diminution in consumption of O2: in time: 23 min
  Diminution in the cardiac effort (IK): in time: 30 min
Anaesthetized dog; [1]
  inhibition in vivo at 2.3 mg/kg: 58%
Anaesthetized dog; [2]
  inhibition in vivo at 2.3 mg/kg: 35%

## COc1cc(/C=C/C(=O)N2CCN(CC(O)COc3ccc(NC(=O)C(C)(C)C)c4c3OCCO4)CC2)cc(OC)c1OC (stereo not shown) [770 614]
In vivo; po, p.o.: 2000 mg/kg
  mortality: 11%
Anaesthetized dog; [7]
  Diminution in consumption of O2: in time: 30 min
  Diminution in the cardiac effort (IK): in time: 30 min
Anaesthetized dog; [8]
  inhibition in vivo at 0.625 mg/kg: 49%
Anaesthetized dog; [9]
  inhibition in vivo at 0.625 mg/kg: 45%

## CNC(=O)Cc1ccc(OCC(O)CN2CCN(C(=O)/C=C/c3cc(OC)c(OC)c(OC)c3)CC2)c2c1OCCO2 (stereo not shown) [770 382]
In vivo; iv, 400 mg/kg i.v.
  mortality: 30%
Anaesthetized dog; [7]
  Diminution in consumption of O2: in time: 15 min
  Diminution in the cardiac effort (IK): in time: 15 min
Anaesthetized dog; [8]
  inhibition in vivo at 0.625 mg/kg: 36%
Anaesthetized dog; [9]
  inhibition in vivo at 0.625 mg/kg: 16%

## COc1cc(/C=C/C(=O)N2CCN(CC(O)COc3ccc(O)c4c3OCCO4)CC2)cc(OC)c1OC (stereo not shown) [780 120, 1-[3-(4-hydroxy-2,3-ethylenedioxy)phenoxy-2-hydroxy]propyl-4-(3,4,5-trimethoxy-cinnamoyl)piperazine, hydrated chlorhydrate]
In vivo; iv
  LD50: 340 mg/kg
Anaesthetized dog; 2.5 mg/kg i.v. slow perfusion
  Diminution in consumption of O2: in time: 30 min
  Diminution in the cardiac effort (IK): in time: 15 min
Anaesthetized dog; [5]
  inhibition in vivo at 2.5 mg/kg: 65%
Anaesthetized dog; [6]
  inhibition in vivo at 2.5 mg/kg: 29%
